Experimental data reported in patent US4425347A, “Perfluorobicyclo compound emulsion preparation” (priority 1982, dated 1984).

Test: Distribution of Perfluoro-compound in Organs (gas chromatography)
Format: in vivo, Wister-strain male rats
Details: 4 g/kg, tail vein; for Residual Rate of perfluorobicyclo compound: 3 Months after administration
Protocol: Using Wister-strain male rats weighing 120-130 g, the emulsion prepared in Example 1 was administered into the tail vein [at 4 g/kg as perfluoro-4-methyloctahydroquinolidine], and for a period of 3 months after the administration, the content of said compound in the liver, spleen and fat tissues due to uptake were measured by means of gas chromatography.

Compound: FC(F)(F)C1(F)N2C(F)(F)C(F)(F)C(F)(F)C(F)(F)C2(F)C(F)(F)C(F)(F)C1(F)F (centres unmarked) [perfluoro-4-methyloctahydroquinolidine]
- adverse influence on the liver or spleen organ (3 months): no evidence of adverse influence on the liver or spleen organ
- uptake by the reticulo-endothelial organ and disappearance (rat): taken up in greater amounts by the reticulo-endothelial organ shortly after the administration, but soon disappeared rapidly
- Residual Rate of perfluorobicyclo compound (Liver): 0.30%
- Residual Rate of perfluorobicyclo compound (Spleen): 0.09%
- half-life (in vivo, iv, 4000 mg/kg, rat): 7.33 days
